# Laboratory results: publication PMC5026608 (ACS chemical biology, 2016)
# Target: hMAT2A (Homo sapiens, UniProt P31153)
# Assay: RP-HPLC of AdoMet product formation
# Assay type: biochemical
# Details: read-out: Km μmol L^-1; saturating ATP 2 mM; 25 mM Tris pH 8.0, 10 mM MgCl2, 50 mM KCl; 37 °C; text prints error ± 27
# Sequence of hMAT2A (P31153 whole entry): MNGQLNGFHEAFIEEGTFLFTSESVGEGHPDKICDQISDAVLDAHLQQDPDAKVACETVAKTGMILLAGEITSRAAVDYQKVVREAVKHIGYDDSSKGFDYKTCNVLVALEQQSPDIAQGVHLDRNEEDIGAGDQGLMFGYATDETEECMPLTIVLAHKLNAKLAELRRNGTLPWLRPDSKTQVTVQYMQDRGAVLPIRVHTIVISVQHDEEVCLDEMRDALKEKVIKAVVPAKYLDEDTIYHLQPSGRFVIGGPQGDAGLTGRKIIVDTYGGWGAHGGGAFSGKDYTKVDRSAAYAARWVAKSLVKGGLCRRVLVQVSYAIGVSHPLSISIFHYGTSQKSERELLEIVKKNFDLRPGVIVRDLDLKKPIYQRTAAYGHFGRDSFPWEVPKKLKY
structure (smiles),measurement,value
CSCC[C@H](N)C(=O)O [LMet],Km,397 ± 29 µM
